Assay results: patent US9365591B2, “Fluoroergoline analogs” (MAP Pharmaceuticals, Inc., priority 2011, dated 2016)
pEC50, pIC50: −log10 of the molar value. Entries after “also recorded” stand apart in the source; their conditions may differ.

Key:
[1] = biological target: T1, human 5-HT2B receptor (Homo sapiens, UniProt P41595); assay: Aequorin assay, competitive antagonist activity at the 5-HT2B receptor; format: cell-based
T1 construct: host or cells: CHO-K1
Description: Percentage inhibition values were determined for 2-CF3 dihydroergotamine on the 5-HT2B receptor.

[2] = biological target: T1, human 5-HT2B receptor; assay: Aequorin assay, agonist activity at the 5-HT2B receptor; format: cell-based
Description: Percentage activation values were determined for 2-CF3 dihydroergotamine at the 5-HT2B receptor.

[3] = Metabolism in human liver microsomes; details: 1 μM, 37° C., 0-60 min; for metabolism by human liver microsomes in the presence of NADPH: 0.2 mg protein/mL
Description: Metabolism of dihydroergotamine (DHE) and 2-CF3 DHE was evaluated in human liver microsomes. DHE mesylate and 2-CF3 DHE mesylate (1 μM each) were incubated separately with human liver microsomes (0.2 mg protein/mL) in triplicate at 37° C. in 0.2 mL (final volume) incubation buffer (50 mM potassium phosphate buffer, pH 7.4, 3 mM MgCl2 and 1 mM EDTA, pH 7.4) with or without cofactor, NADPH-generating system. The NADPH-generating system consisted of 1 mM NADPH, pH 7.4, 5 mM glucose-6-phosphate, pH 7.4 and 1 unit/mL glucose-6-phosphate dehydrogenase. DHE was added to the incubation mixtures in water. 2-CF3-DHE was added to incubation mixtures in 50:50 (v:v) acetonitrile:water. A low level of acetonitrile in the incubation was maintained to avoid any solvent effects on enzyme activity (typically at 0.5% or lower). Reactions were initiated by the addition of the NADPH-generating system and were terminated at 0, 15, 30 and 60 minutes after initiation by the addition of 175 μL of stop reagent (acetonitrile) containing two internal standards (4′-hydroxydiclofenac-d4 and 1′-hydroxymidazolam-d4, 200 and 50 ng/mL in the final stopped incubation, respectively). The samples were then centrifuged and the supernatant fractions were analyzed by LC/MS/MS to quantify the formation of 8′-OH-DHE (metabolite) in the DHE samples and DHE and 8′-OH-DHE in the 2-CF3-DHE samples.

[4] = tested on: human coronary arteries; assay: Constriction assay, human coronary arteries; details: CCRC 100 pM to 10 μM in half-log steps, n=6
Description: (§1) Human coronary arteries and saphenous veins were set up under isometric conditions on either small vessel wire myographs or organ baths, depending on vessel size, in order to examine the influence of the test article on the relative changes in tension. In order to assess tissue viability, the vessel segments were constricted with a high potassium solution (KPSS, 62.5 mM) three times. Vessels were then pre-constricted with sumatriptan (1 μM) and endothelium-dependent vasorelaxation investigated using bradykinin (10 μM). […] All vessels were fully relaxed at the end of the experiment using forskolin (10 μM).
(§2) Coronary arteries and small saphenous veins, having been cut into ring segments of approximately 2 mm length, were attached by 40 μm diameter wire running through the lumen of the vessel to stainless steel heads in 5 mL myograph baths containing PSS (physiological saline solution), aerated with 95% 02 and 5% CO2 and maintained at a temperature of 37° C. Changes in tension were recorded using a Danish Myotech isometric transducer. The vessel segments were allowed to equilibrate for at least 30 minutes after set up. Segments were processed through a standardization procedure of tension application, which reduces signal variability and allows for optimal tissue response to be obtained prior the pharmacological intervention. […]

[5] = tested on: human saphenous veins; assay: Constriction assay, human saphenous veins; details: CCRC 100 pM to 10 μM, 6 donors
Description: as §1, §2

[6] = tested on: Salmonella typhimurium; assay: Genotoxicity study, reversion of histidine-requiring Salmonella typhimurium strains; format: cell-based; details: five histidine-requiring strains, absence and presence of a rat liver metabolizing system; Dunnett's test, 1% level
Description: Genotoxicity studies were performed to evaluate the potential mutagenic activity of 2-CF3-DHE. Studies were performed to examine the ability of 2-CF3-DHE to revert five histidine-requiring strains of Salmonella typhimurium in the absence and presence of a rat liver metabolizing system. […] This is consistent with the conclusion that there was no evidence of any mutagenic activity observed with 2-CF3-DHE.

T1 sequence (P41595 whole entry): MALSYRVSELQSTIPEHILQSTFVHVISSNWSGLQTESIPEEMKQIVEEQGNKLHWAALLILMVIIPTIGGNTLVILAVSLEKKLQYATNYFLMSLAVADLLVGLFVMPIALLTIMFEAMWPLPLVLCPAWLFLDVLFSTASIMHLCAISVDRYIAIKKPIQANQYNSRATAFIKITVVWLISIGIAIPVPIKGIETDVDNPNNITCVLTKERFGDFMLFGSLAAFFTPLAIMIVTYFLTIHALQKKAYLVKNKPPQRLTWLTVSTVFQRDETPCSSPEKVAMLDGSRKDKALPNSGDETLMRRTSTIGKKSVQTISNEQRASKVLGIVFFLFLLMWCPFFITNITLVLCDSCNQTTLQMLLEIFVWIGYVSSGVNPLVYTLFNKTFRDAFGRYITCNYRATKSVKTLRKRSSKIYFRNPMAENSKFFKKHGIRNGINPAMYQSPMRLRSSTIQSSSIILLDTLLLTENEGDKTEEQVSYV

SMILES: CN1C[C@H](C(=O)N[C@]2(C)O[C@@]3(O)C4CCCN4C(=O)[C@H](Cc4ccccc4)N3C2=O)CC2c3cccc4[nH]c(C(F)(F)F)c(c34)CC21 (stereo partly drawn) [2-CF3-dihydroergotamine]
- antagonism of the 5-HT2B receptor ([1]; FIG. 2): potent antagonism
- agonist activity at the 5-HT2B receptor ([2]; 0.01 nM to 20,000 nM, compared with Emax of α-methyl-5-HT): no agonist activity; also recorded: little agonist activity

SMILES: CN1C[C@H](C(=O)N[C@]2(C)O[C@@]3(O)[C@@H]4CCCN4C(=O)[C@H](Cc4ccccc4)N3C2=O)C[C@@H]2c3cccc4[nH]cc(c34)C[C@H]21 [dihydroergotamine, reference compound]
- metabolism by human liver microsomes in the presence of NADPH ([3]; listed as DHE): extensively metabolized

SMILES: CC(N)Cc1c[nH]c2ccc(O)cc12 (stereo not drawn) [α-methyl-5-HT, reference compound]
- pEC50 ([2]; CHO-K1 cells coexpressing apoaequorin and recombinant human 5-HT2B, reference agonist, read-out: EC50, agonism of the 5-HT2B receptor): 9.00

SMILES: CN1C[C@H](C(=O)N[C@]2(C)O[C@@]3(O)[C@@H]4CCCN4C(=O)[C@H](Cc4ccccc4)N3C2=O)CC2c3cccc4[nH]c(C(F)(F)F)c(c34)CC21 (stereo partly drawn) [2-CF3-dihydroergotamine]
- change in tension, coronary arteries ([4]; listed as 2-CF3-DHE): only a very slight mean increase in tension; also recorded: slight mean increase in tension
- change in tension, saphenous veins [5]: no change in tension
- metabolism by human liver microsomes in the presence of NADPH ([3]; listed as 2-CF3-DHE): extensively metabolized
- intrinsic clearance, slower than that of DHE ([3]; human liver microsomes 0.2 mg protein/mL, with NADPH): about 85%
- mutagenic activity, revertant numbers [6]: no statistically significant increases in the revertant numbers

SMILES: CNS(=O)(=O)Cc1ccc2[nH]cc(CCN(C)C)c2c1 [sumatriptan, reference compound]
- pEC50 ([4]; Homo sapiens, read-out: EC50, constriction curve, coronary arteries): 6.95
- pEC50 ([5]; Homo sapiens, read-out: EC50, constriction curve, saphenous veins): 6.73

SMILES: Cc1cc(NC(=O)Nc2ccc3c(ccn3C)c2)sn1 [SB204741, reference compound]
- pIC50 ([1]; CHO-K1 cells, reference agonist at its EC50, 0.005 nM to 10,000 nM, read-out: IC50, antagonism of the 5-HT2B receptor): 7.54
